Measured values as given in BigSolDB 2.1.

CCc1nnc(NC(=O)CCCCCNC(C)=O)s1
solubility (mole fraction)
Conditions | 288.15 K | 293.15 K | 298.15 K | 303.15 K | 308.15 K | 313.15 K | 318.15 K
in ethanol | 0.000578 | 0.000733 | 0.000965 | 0.00118 | 0.00162 | 0.0021 | 0.0026
in n-hexane | 1.54e-05 | 1.81e-05 | 2.15e-05 | 2.47e-05 | 3.05e-05 | 3.55e-05 | 4.13e-05
in n-octanol | 0.000685 | 0.000814 | 0.000961 | 0.00113 | 0.00142 | 0.00167 | 0.00194
